{"source": "patent US20240226100A1", "about": "“CONTROL OF PROTEIN EXPRESSION WITH TMP-PROTAC COMPOUNDS” (THE TRUSTEES OF THE UNIVERSITY OF PENNSYLVANIA, priority 2021, published 2024)", "key": {"[1]": {"system": "FAP CAR-eDHFR direct fusion (DF)", "experiment": "Inhibitor test in primary human FAP-eDHFR DF CAR T cells, flow cytometry", "assay_type": "cell-based", "conditions": "inhibitor pre-incubated 1 hour, then 100 nM 7c for 4 hours", "description": "Following pre-incubation, either 100 nM 7c or vehicle control DMSO (Sigma) was added to the wells, and cells were incubated with the drug for another 4 hours. Following incubation, the cells were washed and their surface CAR expression was assessed on a flow cytometer (BD Biosciences).\nFollowing pre-incubation, the cells were incubated with 100 nM 7c for 4 hours and their CAR expression was assessed on a flow cytometer."}, "eDHFR-YFP [2]": {"system": "eDHFR-YFP", "experiment": "Time and dose-dependent degradation of YFP in Jurkat-DYL / Jurkat eDHFR-YFP+ cells, flow cytometry", "assay_type": "cell-based, Escherichia coli", "conditions": "Jurkat-DYL; 4, 8 and 18 h incubation, varying doses", "description": "Likewise, Jurkat eDHFR-YFP (Jurkat^eDHFR-YFP+) cells are seeded in clear (Falcon) 12-well plates (3×10^5 cells/well) in complete media. […]"}, "eDHFR-YFP [3]": {"system": "eDHFR-YFP", "experiment": "Degradation of eDHFR-YFP in HEK293T eDHFR-YFP+ cells, Western blot with anti-YFP antibody", "assay_type": "cell-based, Escherichia coli", "conditions": "24 h", "description": "HEK293T eDHFR-YFP (HEK293T^eDHFR-YFP+) and OVCAR8 eDHFR-luc (OVCAR8^eDHFR-luc+) cells are prepared in clear (Falcon) 6-well plates (5×10^5 cells/well) and cultured in complete media. Compound 7c is solubilized in 100% DMSO to 10 mM. 10 mM 7c is serially diluted in sterile water accordingly and each dose administered to cells in fresh media at equal volume, such that the final concentration of DMSO in cell media is <1%. Once incubation with drug is completed, media is removed by vacuum, cells are washed with phosphate-buffered saline (PBS), trypsonized at 37° C., quenched with media, and centrifuged (Thermo Scientific Sorvall Legend X1R) at 1000 RPM for 5 minutes. Media and cell debris are removed by vacuum.\nOnce cells are isolated by centrifugation (Thermo Scientific Sorvall Legend X1R), they are solubilized in radioimmunoprecipitation assay (RIPA) lysis buffer with protease inhibitor. Cell lysate is incubated on ice for 30 minutes, sonicated, then centrifuged (Thermo Scientific Sorvall Legend Micro 21R) at 14,800 RPM for 10 minutes. Supernatant is removed and transferred to a new Eppendorf tube.\nUsing Thermo Scientific bicinchoninic acid (BCA) assay kit, total cell protein is quantified and compared to bovine serum albumin (BSA) standards ranging from 10 to 0.625 mg/mL. Cell lysate is aliquoted into a 96-well clear plate (Falcon) and mixed with reagent and shaken at 37° C. for 30 minutes. Samples are analyzed by plate reader (ThermoFisher Varioskan Plusplate), where absorbance is measured at […]. A calibration curve is developed, and samples are prepared to equal mass (mg) of total protein for gel electrophoresis.\nCell lysate is prepared by mixing with 4 uL of loading dye and PBS to give equal total protein and equal total volume across all samples. Each sample is loaded into a NuPage gel (4-12% Bis-tris) and developed in NuPage MES Running Buffer. Once complete, the gel is removed and prepared for protein transfer to membrane. […]"}, "[4]": {"system": "FAP CAR-eDHFR direct fusion (DF)", "experiment": "Dose response of surface CAR expression in primary human FAP-eDHFR DF CAR T cells, flow cytometry", "assay_type": "cell-based", "conditions": "different doses, 24 hours", "description": "Generated CAR T cells were pelleted, resuspended in 2% BSA in PBS (Invitrogen), and incubated with Alexa Fluor® 647 AffiniPure F(ab′2) fragment goat anti-mouse IgG (Jackson ImmunoResearch Laboratories) for 30 minutes at room temperature. Stained cells were washed 3 times with PBS, and were analyzed on a flow cytometer (LSR II, BD Biosciences) for CAR and/or BFP expression. All flow data were analyzed using FlowJo software (FlowJo).\nFollowing incubation, the cells were washed and stained with Alexa Fluor® 647 AffiniPure F(ab′2) fragment goat anti-mouse IgG (Jackson ImmunoResearch Laboratories) as described under “Flow Cytometry”, and their surface expression was analyzed on a flow cytometer (LSR II, BD Biosciences).\nData plotted as raw CAR stain fluorescence is shown in the left panel and percent of maximum CAR expression is shown in the right panel.\nValues are reported as percent of maximum CAR expression (i.e. relative to CAR T cells that were treated with vehicle control). Each color represents a different donor (n=3)."}, "FAP-eDHFR DF CAR T cells [5]": {"system": "FAP-eDHFR DF CAR T cells", "conditions": "1 hour at 37° C., with or without 5 μM unlabeled TMP", "procedure": "3×10^6 CAR T cells were incubated with 6×10^6 counts per minute (cpm) of [^18F]FPTMP for 60 minutes in the presence or absence of unlabeled 5 μM TMP. Following incubation, cells were centrifuged at 1200 rpm and washed 3 times with cold PBS (Corning). After the third wash, the cell pellet was resuspended in 900 μL of PBS and split into 3 technical replicates of 300 μL. Radiotracer uptake was quantified on a gamma counter (PerkinElmer) and analyzed by dividing counts by the injected dose (ID) of [^18F]FPTMP. The final uptake was reported as a ratio between % ID normalized per 10^6 cells (% ID/10^6 cells) of the [^18F]FPTMP group and the blocked control (i.e. cells that were incubated with both unlabeled TMP and [^18F]FPTMP)."}, "FAP-eDHFR DF CAR T cells [6]": {"system": "FAP-eDHFR DF CAR T cells", "conditions": "10:1 E:T ratio overnight, I45 huFAP target cells"}, "[7]": {"system": "DHFR-YFP (DY) direct fusion protein", "experiment": "Degradation mechanism in Jurkat-DYL cells pre-treated with epoxomicin or hydroxychloroquine sulfate, flow cytometry", "assay_type": "cell-based, Escherichia coli", "conditions": "Jurkat-DYL pre-treated with DMSO, epoxomicin or hydroxychloroquine sulfate 2 h, then compound 4 h", "description": "In FIG. 2, flow cytometric analysis is used to measure Jurkat-DYL cells expressing DHFR-YFP (DY) direct fusion protein pre-treated with DMSO, epoxomicin (EPOX), or hydroxychloroquine sulfate (HCS) for 2 hours before DMSO or compound 7b treatment for 4 hours."}, "eDHFR-YFP [8]": {"system": "eDHFR-YFP", "experiment": "Inhibitor test in HEK293T eDHFR-YFP+ cells, Western blot", "assay_type": "cell-based, Escherichia coli", "conditions": "inhibitor pre-incubated 1 h, then 100 nM 7c for 12 h", "description": "Cells were then isolated as previously described and prepared for Western blot analysis. For readout by flow cytometry, 3×10^5 HEK293T^eDHFR-YFP+ cells were seeded in a clear (Falcon) 12-well plate (5×10^5 cells/well) in complete media and the cells were treated as described above the following day. Cells were washed, trypsinized, and collected following total of 13 h of incubation, and their YFP expression was analyzed on flow cytometer (BD)."}}, "note": "Structures can show the parent of a compound that is named as a salt. Where a SMILES comes first, the peptide text is derived from it. The star is where a group is joined. Cbz = O=C(OCc1ccccc1)*"}
{"smiles": "CC(C)C[C@@H](C=O)NC(=O)[C@H](CC(C)C)NC(=O)[C@H](CC(C)C)NC(=O)OCc1ccccc1", "note": "[MG132] (Cbz-Leu-Leu-Leu-aldehyde)", "values": [{"measurement": "effect of inhibitor on TMP-POM 7c-mediated degradation of CAR", "setting": "[1]", "value": "blocked TMP-POM 7c-mediated degradation of CAR"}]}
{"smiles": "COc1cc(Cc2cnc(N)nc2N)cc(OC)c1OCC(=O)NCCOCCOCCNc1cccc2c1C(=O)N(C1CCC(=O)NC1=O)C2=O", "note": "(centres unmarked) [Compound 7a, 2-(4-((2,4-diaminopyrimidin-5-yl)methyl)-2,6-dimethoxyphenoxy)-N-(2-(2-(2-((2-(2,6-dioxopiperidin-3-yl)-1,3-dioxoisoindolin-4-yl)amino)ethoxy)ethoxy)ethyl)acetamide]", "values": [{"measurement": "degradation of YFP (eDHFR fusion protein)", "setting": "eDHFR-YFP [2]", "value": "degrade eDHFR fusion proteins to low/no functional expression"}]}
{"smiles": "COc1cc(Cc2cnc(N)nc2N)cc(OC)c1OCCCC(=O)NCCOCCOCCNc1cccc2c1C(=O)N(C1CCC(=O)N(C)C1=O)C2=O", "note": "(centres unmarked) [Compound 7f, 4-(4-((2,4-diaminopyrimidin-5-yl)methyl)-2,6-dimethoxyphenoxy)-N-(2-(2-(2-((2-(1-methyl-2,6-dioxopiperidin-3-yl)-1,3-dioxoisoindolin-4-yl)amino)ethoxy)ethoxy)ethyl)butanamide]", "values": [{"measurement": "eDHFR-YFP degradation at 100 nM", "setting": "eDHFR-YFP [3]; 100 nM", "value": "does not induce eDHFR-YFP degradation"}, {"measurement": "downregulation of surface CAR expression in dose response assay", "setting": "[4]", "value": "does not result in downregulation of CAR expression from their surface"}]}
{"smiles": "COc1cc(Cc2cnc(N)nc2N)cc(OC)c1OCCC[18F]", "note": "[[18F]FPTMP, [^18F]Fluoropropyl-Trimethoprim]", "values": [{"measurement": "in vitro uptake of radiolabeled TMP", "setting": "FAP-eDHFR DF CAR T cells [5]", "value": "preserved in vitro uptake"}, {"measurement": "effect of radiotracer exposure on CAR T cell cytotoxic function", "setting": "FAP-eDHFR DF CAR T cells [6]", "value": "does not affect the effectors' ability to signal and kill target cells"}]}
{"smiles": "COc1cc(Cc2cnc(N)nc2N)cc(OC)c1OCCCC(=O)NCCOCCNc1cccc2c1C(=O)N(C1CCC(=O)NC1=O)C2=O", "note": "(centres unmarked) [Compound 7b, 4-(4-((2,4-diaminopyrimidin-5-yl)methyl)-2,6-dimethoxyphenoxy)-N-(2-(2-((2-(2,6-dioxopiperidin-3-yl)-1,3-dioxoisoindolin-4-yl)amino)ethoxy)ethyl)butanamide]", "values": [{"measurement": "degradation of YFP (eDHFR fusion protein)", "setting": "eDHFR-YFP [2]", "value": "degrade eDHFR fusion proteins to low/no functional expression"}, {"measurement": "mechanism of degradation of eDHFR-POI", "setting": "[7]", "value": "primarily via a proteosome-mediated mechanism of degradation"}]}
{"smiles": "COc1cc(Cc2cnc(N)nc2N)cc(OC)c1OCCCC(=O)NCCOCCOCCOCCOCCOCCOCCNc1cccc2c1C(=O)N(C1CCC(=O)NC1=O)C2=O", "note": "(centres unmarked) [Compound 7e, 4-(4-((2,4-diaminopyrimidin-5-yl)methyl)-2,6-dimethoxyphenoxy)-N-(20-((2-(2,6-dioxopiperidin-3-yl)-1,3-dioxoisoindolin-4-yl)amino)-3,6,9,12,15,18-hexaoxaicosyl)butanamide]", "values": [{"measurement": "degradation of eDHFR-YFP in dose response screen", "setting": "eDHFR-YFP [3]", "value": "no degradation"}, {"measurement": "degradation of YFP (eDHFR fusion protein)", "setting": "eDHFR-YFP [2]", "value": "degrade eDHFR fusion proteins to low/no functional expression"}]}
{"smiles": "Cn1cnc(N)c2ncnc1-2", "note": "[3-Methyladenine]", "values": [{"measurement": "effect of inhibitor on eDHFR-YFP degradation induced by 7c", "setting": "eDHFR-YFP [8]", "value": "does not"}]}
{"smiles": "CCN(CCO)CCCC(C)Nc1ccnc2cc(Cl)ccc12", "note": "(centres unmarked) [Hydroxychloroquine HCl]", "values": [{"measurement": "effect of inhibitor on eDHFR-YFP degradation induced by 7c", "setting": "eDHFR-YFP [8]", "value": "does not"}]}
{"smiles": "NS(=O)(=O)OC[C@@H]1C[C@@H](n2ccc3c(N[C@H]4CCc5ccccc54)ncnc32)C[C@@H]1O", "note": "[MLN4924]", "values": [{"measurement": "effect of inhibitor on eDHFR-YFP degradation induced by 7c", "setting": "eDHFR-YFP [8]", "value": "blocks degradation induced by 7c"}, {"measurement": "effect of inhibitor on TMP-POM 7c-mediated degradation of CAR", "setting": "[1]", "value": "blocked TMP-POM 7c-mediated degradation of CAR"}]}
{"smiles": "CC[C@H](C)[C@H](NC(=O)[C@H]([C@@H](C)CC)N(C)C(C)=O)C(=O)N[C@H](C(=O)N[C@@H](CC(C)C)C(=O)[C@@]1(C)CO1)[C@@H](C)O", "note": "[Epoxomicin]", "values": [{"measurement": "effect of inhibitor on eDHFR-YFP degradation induced by 7c", "setting": "eDHFR-YFP [8]", "value": "blocks degradation induced by 7c"}, {"measurement": "effect of inhibitor on TMP-POM 7c-mediated degradation of CAR", "setting": "[1]", "value": "blocked TMP-POM 7c-mediated degradation of CAR"}]}
{"smiles": "CO/C1=C\\C(C)=C\\[C@@H](C)[C@@H](O)[C@@H](C)C/C(C)=C/C=C/[C@H](OC)[C@@H]([C@@H](C)[C@@H](O)[C@H](C)[C@@]2(O)C[C@@H](O)[C@H](C)[C@@H](C(C)C)O2)OC1=O", "note": "[bafilomycin]", "values": [{"measurement": "effect of inhibitor on TMP-POM 7c-mediated degradation of CAR", "setting": "[1]", "value": "had no impact on TMP-POM 7c function"}]}
